Earlier results, collected in patent US7930948B2, “Device for leaching extraction and assessment” (priority 2007, dated 2011).

How the values were obtained:
[1] = octanol/water partition coefficient; after Mackay et al. 1992
[2] = after Mackay et al. 1992

Compound | log(Kow) [1] | Aqueous Solubility [2]
C1=Cc2cccc3cccc1c23 [Acenaphthylene] | 4.07 | 
c1ccc2cc3ccccc3cc2c1 [Anthracene] | 4.54 | 0.073 µg/mL
c1ccc2cc3c(ccc4ccccc43)cc2c1 [Benzo(a)anthracene] | 5.91 | 
c1ccc2c(c1)cc1ccc3cccc4ccc2c1c34 [Benzo(a)pyren] | 6.50 | 
c1ccc2c(c1)-c1cccc3c1c-2cc1ccccc13 [Benzo(b)fluoranthene] | 6.50 | 
c1cc2ccc3ccc4ccc5cccc6c(c1)c2c3c4c56 [Benzo(g,h,i)perylene] | 6.85 | 0.00026 µg/mL
c1ccc2cc3c(cc2c1)-c1cccc2cccc-3c12 [Benzo(k)fluoranthene] | 6.84 | 0.00081 µg/mL
c1ccc2c(c1)ccc1cc3c(ccc4ccccc43)cc12 [Dibenzo(a,h)anthracene] | 7.19 | 0.0005 µg/mL
c1ccc2c(c1)-c1cccc3cccc-2c13 [Fluoranthene] | 5.22 | 
c1ccc2c(c1)Cc1ccccc1-2 [Fluorene] | 4.18 | 
c1ccc2c(c1)-c1ccc3ccc4cccc5cc-2c1c3c45 [Indeno(1,2,3-cd)pyrene] | 7.66 | 
c1ccc2ccccc2c1 [Naphthalene] |  | 34.4 µg/mL
c1ccc2c(c1)ccc1ccccc12 [Phenanthrene] |  | 1.29 µg/mL
Acenaphthene | 4.03 | 
